Source: patent US11173144B2, “Adrenergic receptor modulating compounds and methods of using the same” (The Board of Trustees of the Leland Stanford Junior …, priority 2016, dated 2021)

Experiments:
α1D adrenergic receptor = α1D adrenergic receptor (Homo sapiens (Human), UniProt P25100); test: CNS target panel screen: α1D adrenergic receptor; format: binding
Description: From a drug development perspective, characterizing the off-target effects of lead compounds is an important issue, as interactions with off-target molecules may lead to undesirable side effects. Thus we screened xamoterol (S) and the key compound compound 43 against a panel of CNS relevant targets, including G-protein coupled receptor and transporters. […].

[1] = system: LPS-induced TNF-α production in primary microglia; test: In vitro primary microglia TNF-α assay (LPS stimulation, ELISA); format: cell-based, rat; settings: rat primary microglia, LPS 10 ng/ml, compound 10 μM, 4 h; read-out: inhibition of LPS-induced TNF-α production
Description: Mixed glial cells are obtained from the cerebral cortex of Sprague Dawley rat pups at postnatal days 1-3. Briefly, neonates are euthanized by decapitation and their brain tissues are collected for isolation of cortex. The isolated cortex was then trypsinized, triturated, and placed onto tissue culture flasks in DMEM supplemented with 10% fetal bovine serum and 1% Penicillin/Streptomycin. After 10 days in vitro, microglia are harvested by gentle shaking of the growth flask, plated in a 96 well plate at a density of 30,000 cells/well, and incubated at 37° C. overnight. […] Following the 4 h incubation, cell media is collected and the concentration of TNF-α is measured by ELISA (Invitrogen, KRC3011) according to the manufacturer's instruction.
The effects of selected compounds on cellular inflammatory response to LPS are determined in primary microglia extracted from a rat. Briefly, mixed glial cells are obtained from the cerebral cortex of Sprague Dawley rat pups at postnatal days 1-3 and cultured in DMEM supplemented with 10% fetal bovine serum. After 7 days in vitro, microglia are harvested by gentle shaking of the growth flask and plated in a 96 well plate at the density of 3×10^4 cells/well. The cells are used following day. Effects of compounds on LPS-induced TNFα production are determined by incubating cells with LPS along with or without test compounds for 4 hours. Following the 4 hour incubation, cell media are collected and concentration of TNFα was measured by EUSA.

[2] = system: tMCAO rat model of stroke; test: tMCAO model of stroke, Paw-Whisker test of sensorimotor function; format: in vivo; settings: 3 mg/kg then 0.3 mg/kg daily subcutaneous, 28 days
Experimental: The tMCAO is performed on animal under isoflurane inhalation anesthesia (4% for induction and 1.5-2.5% for maintenance) in airoxygen mixture ratio 3:1. Ventral neck area is shaved by electric razor and disinfected using betadine followed by 70% ethanol solution. Subsequently, a midline incision is made in the ventral neck area, sharp and blunt dissection techniques are used to isolate left common carotid artery (CCA) and the internal and external carotid arteries (ICA and ECA, respectively). The proximal CCA is ligated below the bifurcation using 3-0 braided silk suture allowing enough room for filament insertion in the area between the ligation and bifurcation. Subsequently, ECA is ligated at its origin dose to the CCA bifurcation, so that the occipital artery stays proximal to the ligature. A microvessel dip is placed on ICA temporarily to avoid excessive bleeding during filament insertion. In order to occlude the origin of middle cerebral artery (MCA), a monofilament with silicon coated tip (0.39 mm diameter, 5-6 mm long) is then inserted into the CCA, the microvessel dip removed following filament advancement into the ICA 20 mm from the bifurcation through small, horizontal incision. […] Sensorimotor function was measured by the Paw-Whisker test (vibrissae-evoked forelimb placing) once a week until 4 weeks post stroke. […]

Sequence of α1D adrenergic receptor (P25100 whole entry): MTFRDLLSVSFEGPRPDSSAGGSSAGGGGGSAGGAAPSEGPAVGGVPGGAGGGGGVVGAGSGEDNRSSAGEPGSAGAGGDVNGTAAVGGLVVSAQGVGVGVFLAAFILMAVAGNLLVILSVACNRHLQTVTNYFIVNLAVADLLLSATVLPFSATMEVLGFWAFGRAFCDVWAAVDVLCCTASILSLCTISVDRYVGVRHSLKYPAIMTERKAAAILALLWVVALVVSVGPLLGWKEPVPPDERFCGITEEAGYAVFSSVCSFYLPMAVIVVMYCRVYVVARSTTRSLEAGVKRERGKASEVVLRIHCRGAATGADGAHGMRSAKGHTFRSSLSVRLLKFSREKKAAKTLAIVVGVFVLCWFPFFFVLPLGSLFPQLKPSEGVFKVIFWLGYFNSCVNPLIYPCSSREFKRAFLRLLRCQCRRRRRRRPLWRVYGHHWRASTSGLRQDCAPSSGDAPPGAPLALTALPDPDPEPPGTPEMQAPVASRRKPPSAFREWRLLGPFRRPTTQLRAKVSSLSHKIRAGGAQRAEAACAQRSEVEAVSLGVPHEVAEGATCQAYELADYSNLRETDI

Row | SMILES | affinity for α1D adrenergic receptor (α1D adrenergic receptor) | inhibition at 10 µM [1] | sensorimotor function [2]
1 | COc1ccccc1OCCNC[C@H](O)COc1ccc(O)cc1 [Compound 43] | significant affinity | ~55% | –
2 | O=C(NCCNCC(O)COc1ccc(O)cc1)N1CCOCC1 (stereo not drawn) [Xamoterol, reference compound] | – | – | improves sensorimotor function
